Assay results taken from PubChem BioAssay (NCI).
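Compound exposure: 48 hours, 5 concentrations, 96-well plates. TGI is the concentration that stops growth completely.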

How the values were obtained:
Experiment in all cases: NCI tumour cell line growth inhibition, 48 h
XF 498 CNS = tested on: XF 498 CNS
KM20L2 colon = tested on: KM20L2 colon
CCRF-CEM leukemia = tested on: CCRF-CEM leukemia
COLO 205 colon = tested on: COLO 205 colon
T-47D breast = tested on: T-47D breast
U251 CNS = tested on: U251 CNS
UO-31 renal = tested on: UO-31 renal
NCI-H226 lung = tested on: NCI-H226 lung
EKVX NSCLC = tested on: EKVX NSCLC
M14 melanoma = tested on: M14 melanoma
SF-539 CNS = tested on: SF-539 CNS
SW-620 colon = tested on: SW-620 colon
SK-OV-3 ovarian = tested on: SK-OV-3 ovarian
OVCAR-8 ovarian = tested on: OVCAR-8 ovarian
TK-10 renal = tested on: TK-10 renal
MCF7 breast = tested on: MCF7 breast
HOP-62 NSCLC = tested on: HOP-62 NSCLC
A498 renal = tested on: A498 renal
M19-MEL melanoma = tested on: M19-MEL melanoma
SF-295 CNS = tested on: SF-295 CNS
PC-3 prostate = tested on: PC-3 prostate
NCI/ADR-RES ovarian = tested on: NCI/ADR-RES ovarian
RPMI-8226 leukemia = tested on: RPMI-8226 leukemia
DU-145 prostate = tested on: DU-145 prostate
HOP-18 NSCLC = tested on: HOP-18 NSCLC
CAKI-1 renal = tested on: CAKI-1 renal
SNB-19 CNS = tested on: SNB-19 CNS
MALME-3M melanoma = tested on: MALME-3M melanoma
MDA-N = tested on: MDA-N
RXF 393 renal = tested on: RXF 393 renal
MOLT-4 leukemia = tested on: MOLT-4 leukemia
HT29 colon = tested on: HT29 colon
IGROV1 ovarian = tested on: IGROV1 ovarian
SK-MEL-28 melanoma = tested on: SK-MEL-28 melanoma
MDA-MB-231 breast = tested on: MDA-MB-231 breast
OVCAR-4 ovarian = tested on: OVCAR-4 ovarian
DMS 273 small cell lung = tested on: DMS 273 small cell lung
HS 578T breast = tested on: HS 578T breast
SNB-75 CNS = tested on: SNB-75 CNS
A549 NSCLC = tested on: A549 NSCLC
OVCAR-5 ovarian = tested on: OVCAR-5 ovarian
NCI-H23 lung = tested on: NCI-H23 lung
SF-268 CNS = tested on: SF-268 CNS
DLD-1 colon = tested on: DLD-1 colon
ACHN renal = tested on: ACHN renal
HCT-116 colon = tested on: HCT-116 colon
K-562 leukemia = tested on: K-562 leukemia
NCI-H522 lung = tested on: NCI-H522 lung
HOP-92 NSCLC = tested on: HOP-92 NSCLC
MDA-MB-435 = tested on: MDA-MB-435
UACC-257 melanoma = tested on: UACC-257 melanoma
NCI-H460 lung = tested on: NCI-H460 lung
UACC-62 melanoma = tested on: UACC-62 melanoma
KM12 colon = tested on: KM12 colon
HCT-15 colon = tested on: HCT-15 colon
786-0 renal = tested on: 786-0 renal
SN12C renal = tested on: SN12C renal
HL-60(TB) leukemia = tested on: HL-60(TB) leukemia
OVCAR-3 ovarian = tested on: OVCAR-3 ovarian
SK-MEL-5 melanoma = tested on: SK-MEL-5 melanoma
HCC-2998 colon = tested on: HCC-2998 colon
LXFL 529 NSCLC = tested on: LXFL 529 NSCLC
LOX IMVI melanoma = tested on: LOX IMVI melanoma
SK-MEL-2 melanoma = tested on: SK-MEL-2 melanoma
BT-549 breast = tested on: BT-549 breast
SNB-78 CNS = tested on: SNB-78 CNS
SR leukemia = tested on: SR leukemia
DMS 114 small cell lung = tested on: DMS 114 small cell lung

Measured: TGI

CCCCCCCCCCCCCCCC(=O)OCC1OC(n2ccc(N)nc2=O)C(O)C1O (stereo not given)
> 66.6 µM: HOP-62 NSCLC
84.5 µM: SR leukemia
> 100 µM: XF 498 CNS | KM20L2 colon | COLO 205 colon | T-47D breast | U251 CNS | NCI-H226 lung | EKVX NSCLC | SF-539 CNS | SW-620 colon | SK-OV-3 ovarian | OVCAR-8 ovarian | TK-10 renal | MCF7 breast | A498 renal | M19-MEL melanoma | SF-295 CNS | PC-3 prostate | NCI/ADR-RES ovarian | RPMI-8226 leukemia | HOP-18 NSCLC | CAKI-1 renal | SNB-19 CNS | MDA-N | RXF 393 renal | HT29 colon | IGROV1 ovarian | SK-MEL-28 melanoma | MDA-MB-231 breast | OVCAR-4 ovarian | DMS 273 small cell lung | HS 578T breast | SNB-75 CNS | A549 NSCLC | OVCAR-5 ovarian | SF-268 CNS | DLD-1 colon | HCT-116 colon | K-562 leukemia | NCI-H522 lung | HOP-92 NSCLC | MDA-MB-435 | UACC-257 melanoma | UACC-62 melanoma | KM12 colon | HCT-15 colon | SN12C renal | SK-MEL-5 melanoma | HCC-2998 colon | LXFL 529 NSCLC | LOX IMVI melanoma | SK-MEL-2 melanoma | BT-549 breast | SNB-78 CNS
> 54.6 µM: MALME-3M melanoma
67.2 µM: DU-145 prostate
33.7 µM: M14 melanoma
> 50.5 µM: 786-0 renal
> 44.7 µM: UO-31 renal
> 97 µM: OVCAR-3 ovarian
> 41.6 µM: NCI-H23 lung
> 44.2 µM: ACHN renal
> 61.8 µM: HL-60(TB) leukemia
> 40.6 µM: NCI-H460 lung
44.8 µM: MOLT-4 leukemia
8.85 µM: CCRF-CEM leukemia

O=C(NCCCCl)c1c(O)c2ccccc2[nH]c1=O
> 100 µM: CCRF-CEM leukemia | COLO 205 colon | T-47D breast | U251 CNS | UO-31 renal | NCI-H226 lung | EKVX NSCLC | M14 melanoma | SF-539 CNS | SW-620 colon | SK-OV-3 ovarian | OVCAR-8 ovarian | TK-10 renal | MCF7 breast | HOP-62 NSCLC | A498 renal | PC-3 prostate | NCI/ADR-RES ovarian | RPMI-8226 leukemia | DU-145 prostate | CAKI-1 renal | SNB-19 CNS | MALME-3M melanoma | MDA-N | MOLT-4 leukemia | HT29 colon | IGROV1 ovarian | SK-MEL-28 melanoma | MDA-MB-231 breast | OVCAR-4 ovarian | HS 578T breast | A549 NSCLC | OVCAR-5 ovarian | NCI-H23 lung | SF-268 CNS | ACHN renal | HCT-116 colon | K-562 leukemia | NCI-H522 lung | MDA-MB-435 | UACC-257 melanoma | NCI-H460 lung | UACC-62 melanoma | KM12 colon | HCT-15 colon | 786-0 renal | SN12C renal | HL-60(TB) leukemia | OVCAR-3 ovarian | SK-MEL-5 melanoma | HCC-2998 colon | LOX IMVI melanoma | SK-MEL-2 melanoma | BT-549 breast | SR leukemia
> 71.5 µM: RXF 393 renal
> 82.5 µM: SF-295 CNS
> 75.7 µM: HOP-92 NSCLC
> 77.8 µM: SNB-75 CNS

CC(=O)Nc1ccc(C(=O)N2N=C(C)/C(=C/c3cccc(O)c3)C2=O)cc1
> 100 µM: XF 498 CNS | CCRF-CEM leukemia | COLO 205 colon | U251 CNS | UO-31 renal | NCI-H226 lung | EKVX NSCLC | M14 melanoma | SF-539 CNS | SW-620 colon | OVCAR-8 ovarian | TK-10 renal | HOP-62 NSCLC | M19-MEL melanoma | SF-295 CNS | CAKI-1 renal | SNB-19 CNS | MALME-3M melanoma | MOLT-4 leukemia | HT29 colon | SK-MEL-28 melanoma | OVCAR-4 ovarian | DMS 273 small cell lung | SNB-75 CNS | A549 NSCLC | OVCAR-5 ovarian | NCI-H23 lung | SF-268 CNS | DLD-1 colon | ACHN renal | HCT-116 colon | K-562 leukemia | NCI-H522 lung | UACC-257 melanoma | NCI-H460 lung | HCT-15 colon | 786-0 renal | DMS 114 small cell lung | SN12C renal | OVCAR-3 ovarian | SK-MEL-5 melanoma | HCC-2998 colon | LOX IMVI melanoma | SK-MEL-2 melanoma
